Here are results for 1 compound from patent US9322034B2, “Compositions and methods for detecting and modulating cell death by a translation regulated gene expression system” (Wayne State University, priority 2007, dated 2016).

Common to all, as to format: cell-based, human
For test [1], the system named is HEK293 cell pools expressing the fLUC-TRplp-EYFP, fLUC-TRdm-EYFP, pcuLf-TRplp-EYFP or pcuLf-TRdm-EYFP expression cassettes. In words: Cytotoxicity assay by Western blot, bicistronic TR cassettes. To be noted: toxic doses. Background: In western blotting, separated proteins are transferred to a membrane and probed.
Test [2] has as its system HEK293 TRplp-fLUC (subclone #3) and TRdm-fLUC (subclone #45) cells. As to the kind of experiment: Microplate reader dose response, lysed cell luciferase assay. To be noted: 12 hr. As to the method: For this example, HEK293 cells expressing the TRplp-EYFP, TRdm-EYFP, TRplp fLUC and TRdm-fLUC expression cassettes are evaluated using a microplate reader. To quantitate the TR translational response, 24,000 cells are plated in a 96-well microtiter plates and allowed to grow for about 40 hr to achieve the proper cell density prior to incubation with a toxic agent. Each well is cultured with complete DMEM medium containing either no toxin or a defined concentration of toxin and incubated at 37 C for specific time periods. At that time, fluorescence or chemiluminescence on a FLUOstar Optima (BMG Labtech) microplate reader is used measure TR-ORF response.
For a lysed cell assay, cells are cultured as above, but in regular flat bottom 96-well trays. After toxin incubation, the 96-well plates are centrifuged as above. The media is removed, replaced with 50 microliters of Cell Lysis Buffer (25 mM Tris-phosphate (pH7.8), 10% glycerol, 1% TritonX-100, 1 mg/ml BSA, 2 mM EGTA and 2 mM DTT) and incubated for 10 min at RT. Cell lysis is verified using a phase contrast microscope, and the lysates transferred to a white bottom 96-well tray. Luminescence is developed by injection of 5 microliters of D-luciferin solution dissolved in Reaction Buffer (25 mM Glycylglycine (pH 7.8), 15 mM MgSO4, 4 mM EDTA, 15 mM Potassium phosphate, 1 mM DTT, 1 mM Coenzyme A, 6.7 mM ATP and 3.35 mM D-luciferin). After 4 sec with shaking, luminescence values were measured using the lens filter at gains of 2000-3000.
Dose response assays are necessary to define toxic concentrations of candidate cytotoxic agents. To establish a TR-mediated cellular response and identify a TR effective dose, HEK293 cells transformed with the TRplp-fLUC (subclone #3) and TRdm-fLUC (subclone #45) expression cassettes are subjected to a range of subtoxic to toxic concentrations of the calcium ionophore A23187 (0, 1 nM, 10 nM, 100 nM, 1 μM, 2 μM, 4 μM, 6 μM, 8 μM, 10 μM) for 12 hr and analyzed as described above using a lysed cell luciferase assay (FIG. 10).

Test [3] has as its system HEK293 cells expressing the TRplp-fLUC or TRdm-fLUC expression cassette. In words: Cytotoxicity assay by Western blot, monocistronic TR-fLUC cassettes. As to the method:
For this example, expression and regulation of the TRplp-EYFP, TRdm-EYFP, TRplp-fLUC, or TRdm-fLUC expression cassettes in stably transformed HEK293 cells are validated using Western blot analysis. Cell lines or pools are grown in six-well trays or 60 mm dishes to about 60% confluence and treated with complete medium supplemented with a toxic chemical. […] Control samples are treated with fresh medium. Treated and control cells were removed by pipette, collected in media, pelleted for 5 min at 800 rpm (room temperature), and either stored at −70/−80° C. or immediately processed for total proteins.
For protein extraction, cells are resuspended in equal volumes of Suspension Buffer (100 mM NaCl, 10 mM Tris-HCl [pH 7.6], 1 mM EDTA, 1 mg/mL aprotinin, 100 μg/mL PMSF) and 2×SDS Buffer (100 mM Tris-HCl [pH 6.8], 4% SDS, 20% glycerol, 200 mM DTT). Frozen cells are thawed on ice prior to resuspension. The extracts are homogenized by several passages through a syringe fitted with a 26 G needle. Samples are subsequently incubated at RT for 1-2 hr. Samples are transferred to −70/−80° C. for storage or applied to an SDS PAGE gel and examined by Western blot analysis.
To insure equal protein loading levels on Western blots, 10 μL of each protein extract are initially resolved by SDS PAGE, fixed overnight in Preblot gel fixer (25% isopropanol, 10% acetic acid), and stained in 0.05% Coomassie blue (0.05% brilliant blue R, 50% methanol, 10% acetic acid) for 20 min, RT. Gels are destained in 10% acetic acid and dried under vacuum. Using the dried gels, any necessary volume adjustment was made to samples prior to Western blotting.
Western blot analysis is a well established technique in the art and is summarized in the following. Following SDS PAGE gel resolution and protein transfer to a solid membrane support by electrophoresis, the membranes are dried overnight. […] Similarly, fLUC protein is detected using an anti-fLUC antibody (Sigma; 1:1000 dilution). After incubation with a primary antibody and extensive washing (1×PBS-T), proteins binding the primary antibody are detected by incubation with a horseradish peroxidase (HRP) conjugated anti-rabbit or anti-mouse antibody (Amersham; 1:5000 to 1:10000 dilution). Following incubation with the secondary antibody and extensive washing, reactive proteins are detected with the ECL reagent system (Amersham) as described by the vendor.
Following treatment with toxic levels of the calcium ionophore A23187, highly significant increases in fLuc protein levels are observed in the stressed and dying cells that were not evident in untreated cultures. Individual protein bands are quantitated by densitometry on a Beckman DU7400 spectrophotometer.

With `CNc1ccc2oc(C[C@H]3O[C@@]4(CC[C@H]3C)O[C@H]([C@H](C)C(=O)c3ccc[nH]3)[C@H](C)C[C@H]4C)nc2c1C(=O)O` [calcium ionophore A23187], in test [1], the “EYFP translation in cell pools expressing the bicistronic TR cassettes (Western blot, FIG. 4)” value was “induce EYFP translation”. Further, the “fLuc activity at the 8-10 μM toxin concentrations” value in test [2] (8-10 μM) is recorded as “decline in fLuc activity”. Further, the “concentration of peak in fLUC values” in test [2] (raw luciferase numbers) turned out to be 6 µM. Besides, the “concentration at which TR-mediated translation is initially detected” value in test [2] (raw luciferase numbers, each cassette) was 1 µM. The “TR-specific translational activity at lower subtoxic doses” value in test [2] (below 1 μM (1 nM, 10 nM, 100 nM)) is “no apparent TR-specific translational activity”. Also, the “average increase in fLuc protein levels in stressed and dying cells” value is listed as 524.3% in test [3] (HEK293 TRdm-fLuc cells, n=6) and 402.8% in test [3] (HEK293 TRplp-fLuc expressing cells, n=5). Besides, the “increases in fLUC protein levels, % of the protein levels detected in untreated TRplp-fLUC/TRdm-fLUC cells” value in test [3] (cell pools and lines, toxic levels (5-6.7 micromolar), densitometry of Western blot) is recorded as 160-800%. For the same compound, in test [3] (toxin-treated cells, FIG. 6), the “fLUC protein levels in stressed and dying TR-fLUC cells, % of the protein levels of cells expressing cap-dependent CMV-fLuc” value is listed as at most 110%.
